# Source: patent publication US20070178439A1, “Control of es cell self renewal and lineage specification, and medium therefor” (priority 2003, published 2007)
# Entries after “also recorded” stand apart in the source; their conditions may differ.
# B1: BMP4: BMP receptor ligand, agonist of the TGF-β superfamily signalling pathway (protein, UniProt P12644 293-408, looked up)
# Bone morphogenetic protein 4: SPKHHSQRARKKNKNCRRHSLYVDFSDVGWNDWIVAPPGYQAFYCHGDCPFPLADHLNSTNHAIVQTLVNSVNSSIPKACCVPTELSAISMLYLDEYDKVVLKNYQEMVVEGCGCR
# B2: GDF-6: BMP relative growth and differentiation factor-6 (protein, UniProt Q6KF10 336-455, looked up)
# Growth/differentiation factor …: TAFASRHGKRHGKKSRLRCSKKPLHVNFKELGWDDWIIAPLEYEAYHCEGVCDFPLRSHLEPTNHAIIQTLMNSMDPGSTPPSCCVPTKLTPISILYIDAGNNVVYKQYEDMVVESCGCR
# Columns and labels:
# Assay type in all cases: cell-based, mouse
# [1] = test system: ES cells; assay: ES cell self-renewal versus differentiation in serum-free N2B27 adherent culture with passaging; conditions: for ES cell self-renewal with TGF-β superfamily ligand or other factor in place of BMP4: N2B27, in the presence of LIF; for ES cell self-renewal / differentiation: N2B27 serum-free, factor(s) as labelled
# Description: (§1) ES cells were maintained without feeder cells. For serum-free culture, ES cells were plated onto gelatin-coated plates in N2B27 medium (Ying and Smith, 2003) supplemented with 10 ng/ml LIF (Sigma) and 10 ng/ml BMP4 or 200 ng/ml GDF6 (R&D Systems). Cells were passaged every 2-4 days using either enzyme-free Cell Dissociation Buffer (Invitrogen) or 0.025% trypsin/1% chicken serum. Dissociated cells were harvested in N2B27 and pelleted. Supernatant was aspirated and the cell pellet resuspended in N2B27 and replated directly. For single cell cloning, a finely drawn Pasteur pipette pre-loaded with N2B27 was used to pick individual cells into 10 μl drops. Drops were then singly transferred to 96-well plates pre-loaded with 150 μl N2B27 per well with LIF or LIF plus BMP4. After 8 days, ES cell colonies were identified and passaged. To produce chimaeras, ES cells were injected into C57Bl/6 blastocysts. Germline transmission was tested by mating male chimaeras with C57Bl/6 females.
# [2] = test system: Id genes; assay: Gene induction in Oct4-selected ES cells (LightCycler RT-PCR, Northern hybridisation); conditions: overnight in N2B27, then stimulated 45 minutes
# Description: (§2) Oct4GiP ES cells (Ying et al., 2002) were cultured in the presence of puromycin for 4-6 days to eliminate differentiated cells. Purified ES cells were cultured in complete medium plus LIF for 24 hours then washed once with PBS and transferred to N2B27 medium overnight prior to stimulation for 45 min. with 20 ng/ml LIF, 50 ng/ml BMP4, LIF plus BMP4, 10 ng/ml TGF-β1 (all R&D Systems) or 15% FCS. Quantitative RT-PCR was carried out using the LightCycler Instrument (Roche). Data were normalised relative to Oct4 amplification. Primer pairs and reaction conditions are available upon request. Northern hybridizations were carried out on 5 μg aliquots of total RNA.
# [3] = test system: Id1 Transfectants; assay: Propagation of single ES cells in serum-free medium (single cell cloning), Id1 transfectants
# Text: Under these conditions the transfectants were not overtly different from parental ES cells or empty vector transfectants. In contrast, in serum-free N2B27, Id transfectants whilst remaining LIF-dependent, were liberated from requirement for BMP. These cells proliferated in LIF alone as rapidly and with as little differentiation as parental ES cells in LIF plus BMP. The cultures could be passaged multiple times with no change in undifferentiated morphology or factor dependence. The ES cell phenotype was confirmed by expression of Oct4 and Nanog mRNAs (FIG. 4D). As a rigorous test of the capacity of Id expression to substitute for serum or BMP/GDF, we plated single cells in N2B27.
# as §1
# [4] = test system: Smad1; assay: Immunoblot of active serine phosphorylated Smad1 in undifferentiated ES cells; conditions: 15 min or 1 hour stimulation
# Description: (§3) Pre-selected Oct4GiP ES cells were transferred to N2B27 medium overnight prior to stimulation with LIF (20 ng/ml), BMP4 (50 ng/ml) or LIF plus BMP4 for 15 min or 1 hour. Phosphorylated stat3, smad1, erk1/2 and p38 were detected by immunoblotting (Cell Signaling Technology). Cell lysis and immunoprecipitation (Nakashima et al., 1997) employed anti-FLAG (Sigma) or anti-Stat3 (Transduction Labs). Immunostaining was performed as described (Ying et al., 2003)
# [5] = test system: p38 and erk mitogen-activated protein kinases; assay: Immunoblot of p38 and erk activation in undifferentiated ES cells
# Description: as §3
# [6] = test system: STAT3; assay: Immunoblot of STAT3 tyrosine 705 phosphorylation in ES cells
# Description: as §3
# [7] = test system: tis11, c-fos, junB, socs3; assay: Induction of known LIF target genes in Oct-selected ES cells (real time RT-PCR); conditions: 45 min stimulation
# Description: as §2
# [8] = test system: blastocysts / inner cell masses; assay: Derivation of ES cells from blastocysts in serum free medium; conditions: ICM dissociated after 4 days of blastocyst culture in LIF only, BMP4 added on replating
# Text: We investigated whether the response to BMP may be an adaptation of established ES cells to culture or is manifest during the initial stages of ES cell derivation. We plated blastocysts in N2B27 supplemented with BMP plus LIF. After several days expanded inner cell masses (ICMs) were dissociated and replated in the same culture conditions. […] Therefore we subsequently dissociated the ICM after only 4 days of blastocyst culture in LIF only and added BMP4 on replating. […] These could be passaged and expanded as morphologically undifferentiated ES cells. One line (SF1) was characterised further. Upon withdrawal of LIF and BMP, SF1 ES cells underwent neural differentiation in vitro. Moreover, SF1 cells produced extensively chimaeric mice (FIG. 2F). Twelve chimaeras were all male, indicative of sex conversion by highly contributing XY ES cells (Bradley et al., 1984).
# Strain 129 mice were ovariectomised on the third day of pregnancy and embryos in diapause flushed 4 days later (Nichols et al., 1990). Intact blastocysts were plated on gelatin-coated plastic in N2B27 supplemented with LIF (10 ng/ml). After 3-6 days the central mass of each explant was picked, rinsed in PBS and placed in a drop of trypsin for a few minutes. […]
# [9] = Id1 transfectants, single cells, N2B27 serum-free
molecule,measurement,setting,value
"TGF-β1: TGF-β superfamily member, not a BMP receptor ligand",ES cell self-renewal with TGF-β superfamily ligand or other factor in place of BMP4,[1],no discernible effect on ES cells
same,"Id gene (Id1, Id2, Id3) mRNA induction",[2],Neither activin (data not shown) nor TGF-β1 induce Id gene expression
"C[S+]([O-])c1ccc(-c2nc(-c3ccncc3)c(-c3ccc(F)cc3)[nH]2)cc1 (stereo not drawn) [SB203580, reference compound]",Effect of p38 inhibitor on balance of self-renewal and neural differentiation in LIF only,"[1]; 30 μM, N2B27",does not suppress; also recorded: did not alter the balance between self-renewal and neural differentiation
same,Effect of p38 inhibitor on self-renewal in LIF plus BMP,"[1]; 30 μM, N2B27",does not suppress; also recorded: no noticeable effect
same,Overall cell viability in LIF only,[1]; N2B27,appeared to enhance overall cell viability
"LIF: gp130 receptor binding cytokine, Leukaemia Inhibitory Factor",ES cell self-renewal / differentiation,[1],reduces but does not eliminate neural differentiation
same,Passages after which number of undifferentiated ES cells began to decline,[1]; successive passaging in N2B27,2-3 passages
same,Number of colonies expanded,[3]; [9],16
same,Number of colonies formed at day 8,[3]; [9],19
same,Frequency of undifferentiated passageable colony formation from single cells,"[3]; Id transfectants, N2B27",10%
fibronectin,Passages over which undifferentiated Oct4-GiP cells could be expanded,"[1]; N2B27, in combination with LIF",at least 10 passages
same,ES cell self-renewal with TGF-β superfamily ligand or other factor in place of BMP4,[1],more differentiation and slower population expansion than in BMP
same,"Id gene (Id1, Id2, Id3) mRNA induction",[2],"induced by foetal calf serum and by fibronectin, although to a lesser extent than by BMP"
activin,ES cell self-renewal with TGF-β superfamily ligand or other factor in place of BMP4,[1],increased viability and/or proliferation but did not suppress differentiation
same,"Id gene (Id1, Id2, Id3) mRNA induction",[2],Neither activin (data not shown) nor TGF-β1 induce Id gene expression
B1,Phosphorylation of Smad1,[4],Increased phosphorylation of Smad1
same,Erk activation in response to LIF in presence of BMP,[5]; LIF plus BMP,not appreciably inhibited
same,Activation of p38 and erk,"[5]; undifferentiated ES cells, 15 min or 1 hour stimulation","enhances the basal activation of p38 and, by one hour, of erk"
same,STAT3 activation (phosphorylation of tyrosine 705),[6]; BMP alone,does not activate STAT3
same,STAT3 activation by LIF in presence of BMP,[6]; LIF plus BMP,Nor does it increase STAT3 activation by LIF
same,ES cell self-renewal / differentiation,[1],differentiation into sheets of flattened epithelial-like cells
same,Induction of junB and socs3 mRNA,[7],more highly induced by LIF in the presence of BMP
same,Induction of tis11 and c-fos mRNA,[7],showed no response to BMP
same,Formation of primary ES cell colonies,[8],primary ES cell colonies did form
same,"Id gene (Id1, Id2, Id3) mRNA induction",[2],strongly induced
B2,ES cell self-renewal with TGF-β superfamily ligand or other factor in place of BMP4,[1],similarly supported ES cell self-renewal
same,"Id gene (Id1, Id2, Id3) mRNA induction",[2],strongly induced
